Source: paper PMC6934184, “Selective DNA-PKcs inhibition extends the therapeutic index of localized radiotherapy and chemotherapy” (The Journal of Clinical Investigation, 2019)

Biological target: T1, EGFR (ErbB1) T790M (Homo sapiens, UniProt P00533, T790M)
T1 construct: purchased Thermo Fisher Scientific (Life Technologies) SelectScreen
Assay: SelectScreen Z'LYTE
Assay type: biochemical
Summary of the method: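 Percent values come from Thermo SelectScreen profiling of NU5455, combining activity and binding assays. CSF1R was run in Z'LYTE format at Km app ATP, and CAMK1 in Adapta format with ATP listed at 10.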

T1 sequence (P00533 25-1210 T790M): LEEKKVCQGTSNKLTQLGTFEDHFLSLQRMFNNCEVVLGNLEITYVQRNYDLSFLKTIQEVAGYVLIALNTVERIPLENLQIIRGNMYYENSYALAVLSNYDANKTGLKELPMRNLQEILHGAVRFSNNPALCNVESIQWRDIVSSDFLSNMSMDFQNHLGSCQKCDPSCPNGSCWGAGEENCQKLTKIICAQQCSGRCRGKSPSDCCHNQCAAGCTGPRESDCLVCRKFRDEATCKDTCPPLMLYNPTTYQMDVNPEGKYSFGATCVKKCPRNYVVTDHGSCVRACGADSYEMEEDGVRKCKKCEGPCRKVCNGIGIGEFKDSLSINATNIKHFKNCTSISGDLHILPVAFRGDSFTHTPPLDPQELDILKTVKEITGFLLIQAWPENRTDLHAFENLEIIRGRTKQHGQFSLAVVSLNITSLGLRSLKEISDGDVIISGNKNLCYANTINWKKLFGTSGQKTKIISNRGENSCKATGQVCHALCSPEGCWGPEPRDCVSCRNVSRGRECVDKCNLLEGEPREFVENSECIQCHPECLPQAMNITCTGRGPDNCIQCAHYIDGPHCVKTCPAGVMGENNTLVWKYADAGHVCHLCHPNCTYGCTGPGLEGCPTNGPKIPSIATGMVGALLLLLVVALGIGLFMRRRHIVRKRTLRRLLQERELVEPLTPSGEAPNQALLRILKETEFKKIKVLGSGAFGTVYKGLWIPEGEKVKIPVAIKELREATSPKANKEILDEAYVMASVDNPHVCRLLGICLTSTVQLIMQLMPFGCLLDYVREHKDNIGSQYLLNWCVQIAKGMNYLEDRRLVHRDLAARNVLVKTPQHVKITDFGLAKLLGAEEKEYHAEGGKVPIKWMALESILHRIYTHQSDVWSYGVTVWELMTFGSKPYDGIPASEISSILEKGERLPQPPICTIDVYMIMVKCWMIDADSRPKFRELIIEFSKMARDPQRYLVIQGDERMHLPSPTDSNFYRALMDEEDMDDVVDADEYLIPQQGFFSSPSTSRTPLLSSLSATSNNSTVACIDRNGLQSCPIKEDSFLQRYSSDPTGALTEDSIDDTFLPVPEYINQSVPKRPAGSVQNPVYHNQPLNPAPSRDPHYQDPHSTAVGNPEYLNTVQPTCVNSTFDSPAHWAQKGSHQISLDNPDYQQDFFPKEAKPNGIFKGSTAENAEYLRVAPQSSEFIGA

## CN(C(=O)CN1CCOCC1)c1ccc2sc3c(-c4cccc5c(=O)cc(N6CC7CCC(C6)O7)oc45)cccc3c2c1 [NU5455]
  inhibition at 1 µM: -3.3%
